Patent US10392345B2, “Crystal of salt of novel 3-azabicyclo[3.1.0]hexane derivative and pharmaceutical use thereof” (SANWA KAGAKU KENKYUSHO CO., LTD., priority 2015, dated 2019)

Experiment: Mice serum protein binding assay (equilibrium dialysis, RED Device)
Type: in vitro ADME
Details: CD-1 (ICR), mouse, pH 7.4, murine serum, 37° C., 5 to 6 hours, read-out: Protein binding rate (converted)
Procedure: The protein binding rate was determined by equilibrium dialysis method using the RED Device (8K MWCO, Rapid Equilibrium Dialysis Device, Thermo Scientific). The test substances that had been dissolved in DMSO were added to the serum that was collected from Cr1: CD-1 (ICR) mice fasted overnight, so that the final concentration of DMSO became 1% (v/v). The serum to which the test substance had been added was added to the inner side of the dialysis membrane of the RED Device, and PBS (phosphate buffer saline, pH 7.4) containing 0.01% (v/v) Tween 80 was added to the outside in accordance with the method for using the RED Device and incubated at 37° C. for 5 to 6 hours with ellipsoidal shaking at 100 rpm so that the concentration of the unbound test substance in the serum and the concentration of the test substance in the PBS reached equilibrium. […] The proteins were removed from the measurement sample by adding acetonitrile in an amount of 5-fold or more of the amount of the internal standard substance and the serum sample, and the supernatants were measured by LC/MS/MS (liquid chromatograph-triple quadrupole mass spectrometer). The serum samples were measured after suitably diluting with distilled water as necessary. […]
However, in the case when the concentration in the sample was calculated by using a calibration curve, A and B were as follows.

A fraction unbound of 0.068 was found for CC[C@]1(c2cccc(NS(C)(=O)=O)c2)[C@@H]2CN(CC3(O)Cc4ccccc4C3)C[C@@H]21 [Comparative Compound 1, N-(3-{(1R,5S,6r)-6-ethyl-3-[(2-hydroxy-2,3-dihydro-1H-inden-2-yl)methyl]-3-azabicyclo[3.1.0]hexan-6-yl}phenyl)methanesulfonamide methanesulfonate] in this work.
